Test results reported in patent US20130317215A1, “STABLE SYNTHETIC INTERMEDIATE AND METHOD FOR MANUFACTURING SAME” (KYORIN PHARMACEUTICAL CO., LTD., priority 2010, published 2013).
“Also recorded” adds a separate entry of the source.

Legend:
[1] = Change in physical properties during storage at room temperature (Test Example 1); type: physicochemical; conditions: for Physical properties, after 10 weeks: sealed in a glass bottle, stored at room temperature for 10 weeks
Excerpt: The compound (5) was sealed in a glass bottle and stored at room temperature for 10 weeks. The compound (6) was sealed in a glass bottle and stored at room temperature for 19 months.

[2] = Storage stability at room temperature, chemical purity by HPLC (Test Example 2); type: physicochemical
Method: The compounds (5) and (6) were each sealed in a glass bottle and stored at room temperature. At this time, the chemical purity of each compound was measured. After 6 weeks of storage and after 10 weeks of storage, the compound (5) was measured. After 19 months of storage, the compound (6) was measured. The chemical purity was represented by proportions of each compound and a degraded substance (compound (8)), calculated from area ratios measured by HPLC. HPLC measurement conditions are shown below. The chemical purity of the compound (6) was calculated on the basis of the peak of the compound (5).
Measurement wavelength: 220 nm
Column: TSKgel Octyl-80Ts, 4.6 mm I.D.×150 mm
Column temperature: 40° C.
Mobile phase A: acetonitrile
Mobile phase B: diluted phosphoric acid (1→1,000)

CCc1cc(OC)cc(N)c1C(=O)O [Compound (5)]
Physical properties, in synthesis ([1]; compound (5), before storage): WHITE POWDER | Physical properties, after 10 weeks [1]: YELLOW SEMI-SOLID | Physical properties, after 10 weeks ([1]; listed as compound (5)): the physical properties were changed; also recorded: yellow semi-solid | Proportion of the compound degraded ([2]; after 10 weeks of storage at room temperature): ≥ 50% | HPLC purity, peak Compound (5), after 6 weeks ([2]; sealed glass bottle, room temperature, 6 weeks, HPLC area ratio): 94.1% | HPLC purity, peak Compound (5), after 10 weeks ([2]; sealed glass bottle, room temperature, 10 weeks, HPLC area ratio): 38.4%
